Consider 22 compounds from ChEMBL document CHEMBL2029277, “Discovery of XL413, a potent and selective CDC7 inhibitor” (Bioorg Med Chem Lett, 2012).

The term pIC50 denotes the negative decadic logarithm of the IC50, by convention in mol/L.

In data set [1] the target is Casein kinase II alpha/beta (Homo sapiens, UniProt P68400). As to the kind of experiment: Inhibition of human tertrameric CK2alphabeta holoenzyme using casein as substrate after 1 to 2 hrs by chemiluminescence assay in presence of 2 uM ATP. It is filed as protein-complex assay.
Data set [2] has as its target T1, Cell division cycle 7-related protein kinase (Homo sapiens, UniProt O00311). As to the kind of experiment: Inhibition of N-terminus Myc-tagged human CDC7 expressed in Escherichia coli by chemiluminescence assay in presence of ATP.
Data set [3] can be described thus: Plasma concentration in mouse at 100 mg/kg, po measured after 4 hrs. It is filed as ADME, organism-based. Details: dose 100 mg/kg, route oral.
Data set [4] in a line: Plasma concentration in mouse at 100 mg/kg, po measured after 1 hr. It is filed as ADME, organism-based. Details: dose 100 mg/kg, route oral.
Data set [5] concerns the target T1, Cell division cycle 7-related protein kinase. Put plainly: Inhibition of CDC7 in human MDA-MB-231T cells assessed as inhibition of MCM2 phosphorylation at Ser53 after 4 hrs. It is filed as cell-based.
Data set [6] has as its target Serine/threonine-protein kinase pim-1 (Homo sapiens, UniProt P11309). Put plainly: Inhibition of N-terminus His-tagged human PIM1 expressed in Escherichia coli using AKRRRLSA as substrate after 1 to 2 hrs by chemiluminescence assay.

pIC50: −log10 of the molar value.

T1 sequence (O00311 whole entry): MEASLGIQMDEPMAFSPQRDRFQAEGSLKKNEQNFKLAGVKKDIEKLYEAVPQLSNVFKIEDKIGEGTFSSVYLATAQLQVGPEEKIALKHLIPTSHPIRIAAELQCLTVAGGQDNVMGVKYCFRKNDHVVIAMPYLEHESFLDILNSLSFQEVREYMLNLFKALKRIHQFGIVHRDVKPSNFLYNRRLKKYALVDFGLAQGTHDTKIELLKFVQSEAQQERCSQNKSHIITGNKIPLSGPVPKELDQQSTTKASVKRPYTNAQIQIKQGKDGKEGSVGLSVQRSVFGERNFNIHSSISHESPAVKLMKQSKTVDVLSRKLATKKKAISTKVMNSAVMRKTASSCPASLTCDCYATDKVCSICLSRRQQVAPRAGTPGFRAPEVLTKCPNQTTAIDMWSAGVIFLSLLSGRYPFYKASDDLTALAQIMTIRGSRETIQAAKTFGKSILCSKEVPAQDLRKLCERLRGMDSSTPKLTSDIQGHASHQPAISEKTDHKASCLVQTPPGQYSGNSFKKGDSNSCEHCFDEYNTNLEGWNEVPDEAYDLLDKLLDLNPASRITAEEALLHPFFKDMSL
Chain of Casein kinase II alpha/beta (P67870 whole entry): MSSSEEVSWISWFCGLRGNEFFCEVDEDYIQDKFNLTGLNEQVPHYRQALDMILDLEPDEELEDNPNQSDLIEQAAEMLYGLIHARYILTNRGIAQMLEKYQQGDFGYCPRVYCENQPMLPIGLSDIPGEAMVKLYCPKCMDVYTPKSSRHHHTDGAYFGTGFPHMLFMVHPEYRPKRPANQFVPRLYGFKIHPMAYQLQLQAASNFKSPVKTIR
Chain of Casein kinase II alpha/beta (P68400 whole entry): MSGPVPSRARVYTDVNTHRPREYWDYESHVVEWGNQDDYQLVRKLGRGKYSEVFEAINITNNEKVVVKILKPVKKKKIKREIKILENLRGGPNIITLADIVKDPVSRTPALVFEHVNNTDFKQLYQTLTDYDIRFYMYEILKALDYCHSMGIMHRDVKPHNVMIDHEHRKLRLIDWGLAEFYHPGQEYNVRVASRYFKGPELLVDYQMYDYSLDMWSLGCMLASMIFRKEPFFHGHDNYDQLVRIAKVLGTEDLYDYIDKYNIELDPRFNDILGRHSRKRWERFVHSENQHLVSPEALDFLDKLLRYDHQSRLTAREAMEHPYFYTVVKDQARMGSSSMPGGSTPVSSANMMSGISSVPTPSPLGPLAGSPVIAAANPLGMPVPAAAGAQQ
Chain of Serine/threonine-protein kinase pim-1 (P11309 whole entry): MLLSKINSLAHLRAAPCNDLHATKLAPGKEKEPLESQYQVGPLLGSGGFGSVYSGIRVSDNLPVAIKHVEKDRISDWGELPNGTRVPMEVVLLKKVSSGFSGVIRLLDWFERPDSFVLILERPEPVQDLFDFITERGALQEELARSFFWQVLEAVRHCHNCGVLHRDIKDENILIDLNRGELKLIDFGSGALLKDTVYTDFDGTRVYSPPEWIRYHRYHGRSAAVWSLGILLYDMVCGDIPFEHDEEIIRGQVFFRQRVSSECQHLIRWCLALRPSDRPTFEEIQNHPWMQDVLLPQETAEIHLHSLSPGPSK

For the compound `O=c1[nH]cnc2c1oc1ccc(Br)cc12`, the pIC50 was 5.82 in data set [1] and 5.70 in data set [2].
The compound `O=c1[nH]c(CN2CC[C@H](O)C2)nc2c1oc1ccc(Br)cc12` yielded a concentration at 4 h in data set [3] of 49 µM. In addition, the concentration at 1 h in data set [4] was 101 µM.
As for `O=c1[nH]c(CN2CC[C@H](O)C2)nc2c1oc1ccc(Cl)cc12`, the pIC50 in data set [2] is 5.66.
Consider `COc1ccc2oc3c(=O)[nH]c(CN4CC[C@H](O)C4)nc3c2c1`, for which the pIC50 in data set [2] was 5.05.
The same measure, in the same setting: under `O=c1[nH]c(CN2CC[C@H](O)C2)nc2c1oc1ccc3c(c12)OCO3` stands 4.85.
With `O=c1[nH]c(CN2CC[C@H](O)C2)nc2c1oc1cc(O)c(Br)cc12`, in data set [2], the pIC50 was 6.00. The compound also had a concentration at 4 h in data set [3] of 0.15 µM. The compound also showed a concentration at 1 h in data set [4] of 1.4 µM.
As to `CO[C@H]1CCN(Cc2nc3c(oc4ccc(Br)cc43)c(=O)[nH]2)C1`, the pIC50 in data set [1] is 6.29; in data set [2], 7.96; in data set [5] it was 6.44; in data set [6], 7.11.
For the compound `O=c1[nH]c(C2CNC2)nc2c1oc1ccc(Br)cc12`, the pIC50 in data set [1] is 7.37; in data set [2] it was 8.11; in data set [5], 5.60; in data set [6], 7.74.
Turning to `O=c1[nH]c([C@@H]2CCCN2)nc2c1oc1ccc(Br)cc12`, the pIC50 in data set [1] is 7.04; in data set [2] it was 8.32; in data set [5], 7.12; in data set [6], 7.51. The same compound returned a concentration at 4 h in data set [3] of 71 µM. Further, in data set [4], the concentration at 1 h was 195 µM.
Turning to `O=c1[nH]c([C@H]2CCCN2)nc2c1oc1ccc(Br)cc12`, the pIC50 in data set [1] is 5.82; in data set [2], 7.15; in data set [5] it was 5.34; in data set [6], 6.98.
With `O=c1[nH]c(C2CCNCC2)nc2c1oc1ccc(Br)cc12`, the pIC50 was 7.30 in data set [1], 8.21 in data set [2], 5.84 in data set [5] and 7.66 in data set [6].
The corresponding values for `CN1CCC[C@H]1c1nc2c(oc3ccc(Br)cc32)c(=O)[nH]1` are 7.20, 8.14, 6.10 and 7.96.
The corresponding values for `O=c1[nH]c([C@@H]2C[C@@H](O)CN2)nc2c1oc1ccc(Br)cc12` are 6.38, 8.04, 6.36 and 7.14.
`O=c1[nH]c([C@@H]2C[C@@H](F)CN2)nc2c1oc1ccc(Br)cc12`: the pIC50 in data set [1] was 6.62; in data set [2] it was 8.43; in data set [5], 7.09; in data set [6] it was 7.34. In data set [3], this compound returned a concentration at 4 h of 46 µM. This compound yielded a concentration at 1 h in data set [4] of 82 µM.
For the compound `O=c1[nH]c([C@@H]2C[C@H](F)CN2)nc2c1oc1ccc(Br)cc12`, the pIC50 was 5.44 in data set [1], 7.96 in data set [2], 6.25 in data set [5] and 7.96 in data set [6].
As for `COc1ccc2oc3c(=O)[nH]c([C@@H]4CCCN4)nc3c2c1`, the pIC50 in data set [1] is 6.62; in data set [2] it was 8.21; in data set [5] it was 5.86; in data set [6] it was 7.11.
The corresponding values for `O=c1[nH]c([C@@H]2C[C@@H](F)CN2)nc2c1oc1ccc(Cl)cc12` are 6.12, 8.40, 6.78 and 7.19.
The corresponding values for `COc1ccc2oc3c(=O)[nH]c([C@@H]4C[C@@H](F)CN4)nc3c2c1` are 6.13, 8.41, 6.53 and 6.99.
The compound `Cc1cc(-c2cc(-c3ccccc3)nc(=O)[nH]2)ccc1O` registered a concentration at 4 h in data set [3] of 0.31 µM. In data set [4], the concentration at 1 h stood at 0.82 µM.
In the case of `O=C(O)C1CCN(Cc2nc3c(oc4ccc(Br)cc43)c(=O)[nH]2)C1` (racemic), the pIC50 in data set [1] was 7.31; in data set [2] it was 7.89; in data set [5] it was < 4.40; in data set [6] it was 6.85.
The like results for `O=c1[nH]c(C2CCCNC2)nc2c1oc1ccc(Br)cc12` (racemic) were, in that order, 6.76, 7.82, 5.63 and 7.41.
The like results for `CC(N)c1nc2c(oc3ccc(Br)cc32)c(=O)[nH]1` (racemic) were, in that order, 6.12, 8.10, 6.06 and 7.14.
